Measurements as given in patent US6855504B2, “In vivo high throughput toxicology screening method” (priority 1999, dated 2005).
Read-outs that look alike come from different tables or passages of the source.

Experiments:
Format in all cases: in vivo
[1] = system: Rat
Procedure: (§1) Using standard protocols, including the ones described above for administration to flies, a variety of agents were administered at different doses to mice, rats and flies and the LD for each agent was compared.

[2] = system: Fly
Procedure: The chemical is dissolved in water at or near its saturation point. Serial dilutions of this stock solution are used to rehydrate instant fly media (Fisher Scientific). Specifically, one toxicity assay will comprise of instant fly media rehydrated with pure stock solution of a chemical, while another will be rehydrated with a 10% solution of the chemical (in water). This format will be used to generate data over a 4 to 5 log dose range for each chemical tested.
A known quantity of embryos, typically between 40-50, is used as the input. Specifically, 40 to 50 embryos are counted and placed in the receptacle that contains the media/chemical mixture to be tested. The embryos may be counted manually or by automation (e.g., liquid suspension of embryos flowing through a diode). The larva feed on the media/chemical mixture. All aspects of development from larva stage to adult must proceed normally in the presence of the chemical. The only food and water source available to the larva and flies contains the chemical. […] Specifically, Iron, Copper, and zinc have been selected. Sensitive and accurate kits are commercially available to analyze these chemicals down to a concentration of 1 part per million. This will assign quantitative analyses to determine variability between larva in a test receptacle and between larva in different receptacles.
The developing larva and pupa are examined for normal growth and development. Then the adult flies are analyzed for lethality, sterility, developmental defects, and life span alterations. Lethality is determined by dividing the number of adult flies that eclose by the total number of embryos that were placed in the receptacle. Sterility is examined for both males and females by crossing them to normal flies. […] Finally the flies are allowed to live the natural span of their life to determine whether an effect occurred to either shorten or lengthen the average lifespan of the fly.
as §1

[3] = system: fruit fly; assay: AntiToxicity screen: fly survival with toxins with and without EDTA; conditions: yeast paste: None
Source text: This binding can occur in vitro or in vivo. In vivo binding can lead to neutralizing the toxicity of heavy metals to animals.

[4] = system: Mouse
Procedure: as §1

SMILES | Rat (oral LD50 mg/ml) ([1]; oral) | Fly (oral LD50 mg/ml) ([2]; oral, chemical in fly media) | Mouse (oral LD50 mg/ml) ([4]; oral) | further results
CN(C)c1ccncc1 [4-dimethyl aminopyridine] | 250 mg/mL | .15 mg/mL |  | 
[Cu] [Copper] |  |  |  | % survival ([3]; fly food: 0.4 mM Copper): 50%; % survival ([3]; fly food: 1.1 mM Copper): 0%
N[C@@H](Cc1ccc(O)c(O)c1)C(=O)O [L-dopa] | 1780 mg/mL | .7 mg/mL | 2363 mg/mL | 
[Zn] [Zinc] |  |  |  | % survival ([3]; fly food: 2 mM Zinc): 50%; % survival ([3]; fly food: 6.0 mM Zinc): 0%
O=S1(=O)OC(c2cc(Br)c(O)c(Br)c2)(c2cc(Br)c(O)c(Br)c2)c2ccccc21 [bromophenol blue] |  | 10 mg/mL |  | 
[Cl][Cd][Cl] [cadmium chloride] | 88 mg/mL | .1 mg/mL | 60 mg/mL | 
Clc1cccc(Cl)c1N=C1NCCN1 [clonidine] |  |  |  | Mouse (oral LD50 mg/ml) ([4]; in vivo, po): 135 mg/mL; Rat (oral LD50 mg/ml) ([1]; in vivo, po): 126 mg/mL; Fly (oral LD50 mg/ml) ([2]; in vivo, po): .07 mg/mL
[Cl-].[Li+] [lithium chloride] | 526 mg/mL | .4 mg/mL | 1165 mg/mL | 
COP(=O)(OC)C(O)C(Cl)(Cl)Cl (stereo not shown) [metrifonate] | 560 mg/mL | .04 mg/mL | 300 mg/mL | toxicity category in mice ([4]; mice, oral LD50 category): moderate toxicity; toxicity category in rats ([1]; rats, oral LD50 category): moderate toxicity; toxicity category in flies ([2]; flies, oral LD50 category): high toxic range
NC(=O)c1cccnc1 [niacinamide] |  |  |  | Mouse (oral LD50 mg/ml) ([4]; in vivo, po): 2500 mg/mL; Rat (oral LD50 mg/ml) ([1]; in vivo, po): 3500 mg/mL; Fly (oral LD50 mg/ml) ([2]; in vivo, po): 5 mg/mL
Nc1ccccc1N [phenylenediamine] | 510 mg/mL | .2 mg/mL | 366 mg/mL | 
[N-]=[N+]=[N-] [sodium azide] | 27 mg/mL | .05 mg/mL | 27 mg/mL | 
O.O.O.O.O.O.O.O.O.O.[Na+].[Na+].[O-]B1OB2OB([O-])OB(O1)O2 [sodium borate] | 2660 mg/mL | 6.5 mg/mL | 2000 mg/mL | 
